Test results as given in the supplement of paper PMC10627819.

What was measured:
B. subtilis 168 [1] = experiment: fitness (endpoint OD595 vs no drug) (fraction); higher = more growth
Method in brief: (§1)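 Plates with 384 wells were inoculated at OD595 0.01 using 30 µl of TSB, LB Lennox or CY, or 55 µl for S. pneumoniae. Incubation was at 37 °C, with OD595 measured every 30 min for 14 h. Fitness is the stationary-phase transition optical density over the robust mean of no-drug control wells, after first-reading background subtraction; it is capped at 1.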

S. pneumoniae D39V [2] = experiment: as above
Method in brief: as §1

B. subtilis 168 [3] = experiment: Bliss interaction score (quartile over a dose matrix) (fitness difference); higher = more antagonism (negative = synergy)
Method in brief: (§2)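 Fitness is OD595 at stationary-phase entry relative to the plate's robust no-drug mean, capped at 1. Single-drug fitness was inferred from combinations. The Bliss score is observed minus product-expected fitness, summarised by quartiles over technical, biological and donor/recipient replicates.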

S. aureus DSM 20231 = experiment: as above
Method in brief: as §2

S. aureus Newman = experiment: as above
Method in brief: as §2

S. pneumoniae D39V [4] = experiment: as above
Method in brief: as §2
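For Bliss interaction score (quartile over a dose matrix) in this document: first quartile when negative (synergy) and third quartile when positive (antagonism).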

For C[C@H]1COc2c(N3CCN(C)CC3)c(F)cc3c(=O)c(C(=O)O)cn1c23 [Levofloxacin] + CN[C@@H]1[C@H](O[C@H]2[C@H](O[C@H]3[C@H](O)[C@@H](O)[C@H](N=C(N)N)[C@@H](O)[C@@H]3N=C(N)N)O[C@@H](C)[C@]2(O)C=O)O[C@@H](CO)[C@H](O)[C@H]1O [Streptomycin], the fitness (B. subtilis 168 [1]; first compound 0.001 µg/mL, partner 2 µg/mL, one replicate) was 0.963, the fitness (B. subtilis 168 [1]; first compound 0.001 µg/mL, partner 4 µg/mL, one replicate) was no less than 1 and the fitness (B. subtilis 168 [1]; first compound 0.001 µg/mL, partner 8 µg/mL, one replicate) was 0.252. It also gave a fitness (B. subtilis 168 [1]; first compound 0.002 µg/mL, partner 2 µg/mL, one replicate) of 0.952, a fitness (B. subtilis 168 [1]; first compound 0.002 µg/mL, partner 4 µg/mL, one replicate) of 0.737 and a fitness (B. subtilis 168 [1]; first compound 0.002 µg/mL, partner 8 µg/mL, one replicate) of 0.0282. For the same compound, the fitness (B. subtilis 168 [1]; first compound 0.0039 µg/mL, partner 2 µg/mL, one replicate) was 0.932, the fitness (B. subtilis 168 [1]; first compound 0.0039 µg/mL, partner 4 µg/mL, one replicate) was 0.832 and the fitness (B. subtilis 168 [1]; first compound 0.0039 µg/mL, partner 8 µg/mL, one replicate) was 0.047. It also gave a fitness (B. subtilis 168 [1]; first compound 0.0312 µg/mL, partner 2 µg/mL) of 0.0408, a fitness (B. subtilis 168 [1]; first compound 0.0312 µg/mL, partner 4 µg/mL) of 0.0413 and a fitness (B. subtilis 168 [1]; first compound 0.0312 µg/mL, partner 8 µg/mL) of 0.0242. It also gave a fitness (B. subtilis 168 [1]; first compound 0.0625 µg/mL, partner 2 µg/mL) of 0.0475, a fitness (B. subtilis 168 [1]; first compound 0.0625 µg/mL, partner 4 µg/mL) of 0.0546 and a fitness (B. subtilis 168 [1]; first compound 0.0625 µg/mL, partner 8 µg/mL) of 0.033. It also gave a fitness (B. subtilis 168 [1]; first compound 0.125 µg/mL, partner 2 µg/mL) of 0.0446, a fitness (B. subtilis 168 [1]; first compound 0.125 µg/mL, partner 4 µg/mL) of 0.0475 and a fitness (B. subtilis 168 [1]; first compound 0.125 µg/mL, partner 8 µg/mL) of 0.0333. It also gave a fitness (S. pneumoniae D39V [2]; first compound 0.1725 µg/mL, partner 2 µg/mL) of 0.942, a fitness (S. pneumoniae D39V [2]; first compound 0.1725 µg/mL, partner 4 µg/mL) of 0.923 and a fitness (S. pneumoniae D39V [2]; first compound 0.1725 µg/mL, partner 8 µg/mL) of 0.927. For the same compound, the fitness (S. pneumoniae D39V [2]; first compound 0.2 µg/mL, partner 2 µg/mL, one replicate) was 0.955, the fitness (S. pneumoniae D39V [2]; first compound 0.2 µg/mL, partner 4 µg/mL) was 0.9 and the fitness (S. pneumoniae D39V [2]; first compound 0.2 µg/mL, partner 8 µg/mL) was 0.798. It also gave a fitness (S. pneumoniae D39V [2]; first compound 0.2 µg/mL, partner 16 µg/mL, one replicate) of 0.718, a fitness (S. pneumoniae D39V [2]; first compound 0.345 µg/mL, partner 2 µg/mL) of 0.817 and a fitness (S. pneumoniae D39V [2]; first compound 0.345 µg/mL, partner 4 µg/mL) of 0.812. For the same compound, the fitness (S. pneumoniae D39V [2]; first compound 0.345 µg/mL, partner 8 µg/mL) was 0.788, the fitness (S. pneumoniae D39V [2]; first compound 0.4 µg/mL, partner 2 µg/mL, one replicate) was 0.855 and the fitness (S. pneumoniae D39V [2]; first compound 0.4 µg/mL, partner 4 µg/mL) was 0.806. The fitness (S. pneumoniae D39V [2]; first compound 0.4 µg/mL, partner 8 µg/mL) was 0.704, the fitness (S. pneumoniae D39V [2]; first compound 0.4 µg/mL, partner 16 µg/mL, one replicate) was 0.602 and the fitness (S. pneumoniae D39V [2]; first compound 0.69 µg/mL, partner 2 µg/mL) was 0.316. For the same compound, the fitness (S. pneumoniae D39V [2]; first compound 0.69 µg/mL, partner 4 µg/mL) was 0.422, the fitness (S. pneumoniae D39V [2]; first compound 0.69 µg/mL, partner 8 µg/mL) was 0.445 and the fitness (S. pneumoniae D39V [2]; first compound 0.8 µg/mL, partner 2 µg/mL, one replicate) was 0.346. It also gave a fitness (S. pneumoniae D39V [2]; first compound 0.8 µg/mL, partner 4 µg/mL) of 0.307, a fitness (S. pneumoniae D39V [2]; first compound 0.8 µg/mL, partner 8 µg/mL) of 0.293 and a fitness (S. pneumoniae D39V [2]; first compound 0.8 µg/mL, partner 16 µg/mL, one replicate) of 0.208. For the same compound, the Bliss interaction score (B. subtilis 168 [3]) was 0.0365, the Bliss interaction score (S. aureus DSM 20231) was -0.0487 and the Bliss interaction score (S. aureus Newman) was 0.0694. The Bliss interaction score (S. pneumoniae D39V [4]) was -0.0992.

CN(C)C(=O)C(CCN1CCC(O)(c2ccc(Cl)cc2)CC1)(c1ccccc1)c1ccccc1 [Loperamide] + Cc1onc(-c2ccccc2)c1C(=O)N[C@@H]1C(=O)N2[C@@H]1SC(C)(C)[C@@H]2C(=O)O [Oxacillin] gave a fitness (B. subtilis 168 [1]; first compound 25 µg/mL, partner 0.002 µg/mL) of 0.749, a fitness (B. subtilis 168 [1]; first compound 25 µg/mL, partner 0.004 µg/mL) of 0.697 and a fitness (B. subtilis 168 [1]; first compound 25 µg/mL, partner 0.075 µg/mL, one replicate) of 0.0507. For the same compound, the fitness (B. subtilis 168 [1]; first compound 25 µg/mL, partner 0.15 µg/mL, one replicate) was 0.0511, the fitness (B. subtilis 168 [1]; first compound 25 µg/mL, partner 0.3 µg/mL, one replicate) was 0.0488 and the fitness (B. subtilis 168 [1]; first compound 50 µg/mL, partner 0.002 µg/mL) was 0.0423. For the same compound, the fitness (B. subtilis 168 [1]; first compound 50 µg/mL, partner 0.004 µg/mL) was 0.0371, the fitness (B. subtilis 168 [1]; first compound 50 µg/mL, partner 0.008 µg/mL) was 0.0519 and the fitness (B. subtilis 168 [1]; first compound 50 µg/mL, partner 0.075 µg/mL, one replicate) was 0.0519. For the same compound, the fitness (B. subtilis 168 [1]; first compound 50 µg/mL, partner 0.15 µg/mL, one replicate) was 0.0509, the fitness (B. subtilis 168 [1]; first compound 50 µg/mL, partner 0.3 µg/mL, one replicate) was 0.0494 and the fitness (B. subtilis 168 [1]; first compound 100 µg/mL, partner 0.002 µg/mL) was 0.0346. It also gave a fitness (B. subtilis 168 [1]; first compound 100 µg/mL, partner 0.004 µg/mL) of 0.0357, a fitness (B. subtilis 168 [1]; first compound 100 µg/mL, partner 0.008 µg/mL) of 0.0283 and a fitness (B. subtilis 168 [1]; first compound 100 µg/mL, partner 0.075 µg/mL, one replicate) of 0.0598. The fitness (B. subtilis 168 [1]; first compound 100 µg/mL, partner 0.15 µg/mL, one replicate) was 0.0504, the fitness (B. subtilis 168 [1]; first compound 100 µg/mL, partner 0.3 µg/mL, one replicate) was 0.0472 and the fitness (S. pneumoniae D39V [2]; first compound 17.14 µg/mL, partner 0.01 µg/mL) was 0.976. The fitness (S. pneumoniae D39V [2]; first compound 17.14 µg/mL, partner 0.02 µg/mL) was 0.878, the fitness (S. pneumoniae D39V [2]; first compound 20 µg/mL, partner 0.01 µg/mL) was 0.99 and the fitness (S. pneumoniae D39V [2]; first compound 20 µg/mL, partner 0.02 µg/mL) was 0.869. The fitness (S. pneumoniae D39V [2]; first compound 20 µg/mL, partner 0.04 µg/mL) was 0.156, the fitness (S. pneumoniae D39V [2]; first compound 34.28 µg/mL, partner 0.01 µg/mL) was 0.908 and the fitness (S. pneumoniae D39V [2]; first compound 40 µg/mL, partner 0.01 µg/mL) was 0.859. It also gave a fitness (S. pneumoniae D39V [2]; first compound 40 µg/mL, partner 0.04 µg/mL) of 0.109, a fitness (S. pneumoniae D39V [2]; first compound 68.57 µg/mL, partner 0.01 µg/mL, one replicate) of 0.979 and a fitness (S. pneumoniae D39V [2]; first compound 68.57 µg/mL, partner 0.02 µg/mL, one replicate) of 0.901. The fitness (S. pneumoniae D39V [2]; first compound 68.57 µg/mL, partner 0.04 µg/mL, one replicate) was 0.618, the fitness (S. pneumoniae D39V [2]; first compound 80 µg/mL, partner 0.04 µg/mL) was 0.0757 and the Bliss interaction score (B. subtilis 168 [3]) was -0.0924. For the same compound, the Bliss interaction score (S. aureus DSM 20231) was -0.0615, the Bliss interaction score (S. aureus Newman) was 0.077 and the Bliss interaction score (S. pneumoniae D39V [4]) was -0.33.
